From paper PMC12340070, “A novel modulator of IL-6R prevents inflammation-induced preterm birth and improves newborn outcome” (EMBO Molecular Medicine, 2025)

Tests used:
STAT3 = STAT3 phosphorylation in HEK-Blue IL-6 cells (immunoblot); assay type: cell-based, human; settings: for p-STAT3 phospho/total: 10 min, densitometry
Protocol: (§1) For RT-qPCR experiments, cells were plated in 6-well plates at 70% of confluence and starved overnight. Cells were treated respectively with HSJ633, HSJ630, HSJ631, HSJ634, HSJ635, HSJ639 (1 × 10^−6 M), or TCZ (3.44 μM, based on validated doses (Sahraoui et al, [2014])) for TNF-α expression. For hIL-1, hIL-6, and hTNF-α expression, cells were treated with HSJ633 using concentrations ranging from 10^−11 to 10^−4 M, allowing for equilibrium over 15 min. Cells were then treated with […] of IL-6 for 6 h for both experiments. Cell lysis was performed by adding RIBOzol. Samples were stored at −20 °C until analysis by quantitative PCR. To determine the degree of phosphorylation of different proteins (STAT3, ERK, AKT, and p38), HEK-Blue IL-6 cells were treated with HSJ633 (10^−6 M), TCZ (3.44 uM) or vehicle for 30 min in DMEM only. […] For p38 activation, 25 min of stimulation with IL-6 was required. The wells were charged with radioimmunoprecipitation assay buffer (RIPA) at a concentration of 1×, cOmplete EDTA-free Protease Inhibitor Cocktail final concentration 1×, and phenylmethanesulfonyl fluoride (PMSF) 1 mM. Samples were shaken for 30 min followed by centrifugation at 12,000 RPM at 4 °C for 20 min to harvest the proteins. Proteins were stored at −80 °C until analysis by immunoblotting.
(§2) A total of 15 μL of protein from HEK-Blue IL-6 cells combined with Laemmli-SDS 1× (reducing) was loaded onto SDS-PAGE gel and electro-transferred onto polyvinylidene difluoride membranes. After blocking with BSA 5%-TBST for 1 h, membranes were incubated with the following antibodies (Ab): either mouse anti-phospho-STAT3 (1:1000), rabbit anti-phospho-AKT (1:1000), rabbit anti-phospho-ERK1/2 (1:1000), rabbit anti-phospho-p38 (1:1000), rabbit anti-cytochrome c oxidase 4 (1:5000) or mouse anti-GAPDH (1:20,000, Proteintech). After washing, membranes were incubated for 1 h with secondary antibodies conjugated to HRP (1:3000 Anti-rabbit IgG, HRP-linked Antibody and 1:5000 Goat Anti-Mouse IgG (H + L)-HRP Conjugate). Samples were normalized by membrane stripping (15 g glycine, 1 g SDS, 10 mL Tween-20 at pH 2,2) and incubation with Ab (mouse anti-STAT3 (1:1000), rabbit anti-AKT (1:1000), rabbit anti-ERK1/2 (1:1000) or rabbit anti-p38 (1:1000)). After washing, membranes were incubated for 1 h with secondary antibodies conjugated to HRP (1:3000 Anti-rabbit IgG, HRP-linked antibody and 1:5000 goat anti-mouse IgG (H + L)-HRP Conjugate). Western Lightning Plus ECL or Clarity MAX Western ECL Substrate were used for protein detection using the ChemiDoc MP, and densitometric analysis were completed with ImageLab from Bio-Rad Laboratories.

AKT = AKT phosphorylation in HEK-Blue IL-6 cells (immunoblot); assay type: cell-based, human; settings: for p-AKT phospho/total: 10 min, densitometry
Protocol: as §1, §2

ERK1/2 = ERK1/2 phosphorylation in HEK-Blue IL-6 cells (immunoblot); assay type: cell-based, human; settings: for p-ERK 1/2 phospho/total: 10 min, densitometry
Protocol: as §1, §2

p38 = p38 phosphorylation in HEK-Blue IL-6 cells (immunoblot); assay type: cell-based, human; settings: for p-p38 phospho/total: densitometry
Protocol: For RT-qPCR experiments, cells were plated in 6-well plates at 70% of confluence and starved overnight. Cells were treated respectively with HSJ633, HSJ630, HSJ631, HSJ634, HSJ635, HSJ639 (1 × 10^−6 M), or TCZ (3.44 μM, based on validated doses (Sahraoui et al, [2014])) for TNF-α expression. For hIL-1, hIL-6, and hTNF-α expression, cells were treated with HSJ633 using concentrations ranging from 10^−11 to 10^−4 M, allowing for equilibrium over 15 min. Cells were then treated with […] of IL-6 for 6 h for both experiments. Cell lysis was performed by adding RIBOzol. Samples were stored at −20 °C until analysis by quantitative PCR. To determine the degree of phosphorylation of different proteins (STAT3, ERK, AKT, and p38), HEK-Blue IL-6 cells were treated with HSJ633 (10^−6 M), TCZ (3.44 uM) or vehicle for 30 min in DMEM only. Human IL-6 (3.86 nM) was added to the medium for 15 min to stimulate IL-6R pathways leading to STAT3, ERK, and AKT activation. For p38 activation, 25 min of stimulation with IL-6 was required. The wells were charged with radioimmunoprecipitation assay buffer (RIPA) at a concentration of 1×, cOmplete EDTA-free Protease Inhibitor Cocktail final concentration 1×, and phenylmethanesulfonyl fluoride (PMSF) 1 mM. Samples were shaken for 30 min followed by centrifugation at 12,000 RPM at 4 °C for 20 min to harvest the proteins. Proteins were stored at −80 °C until analysis by immunoblotting.
as §2

[1] = system: preterm birth in pregnant women; settings: pregnancies prospectively reported following exposure; ref Hoeltzenbein et al, 2016; cited from earlier work
From the text: Complete or partial inhibition of the IL-6 receptor by HSJ633 reduces maternal inflammation and thus prematurity levels.

[2] = system: murine IL-6R (Ba/F3-gp130-mIL-6R); settings: ref Lokau et al, 2020; cited from earlier work
From the text: HSJ633 has been formulated based on the human IL-6 receptor. […] Both Tocilizumab and MR-16 act as orthosteric antagonists, competitively interfering with IL-6 for receptor occupancy (Lokau et al, [2020]). The ...

[3] = HEK-Blue IL-6, IL-6 3.86 nM, HSJ633 1 μM, TCZ 3.44 μM

## Tocilizumab: IL-6R orthosteric antagonist monoclonal antibody
STAT3; mean (Moyenne)
  p-STAT3 phospho/total: 0.57
STAT3; replicate 2
  p-STAT3 phospho/total: 0.67
STAT3; replicate 3
  p-STAT3 phospho/total: 0.46
STAT3; [3]
  STAT3 phosphorylation, result in words: blocked
AKT; average
  p-AKT phospho/total: 0.06
AKT; replicate 2
  p-AKT phospho/total: 0.0565
AKT; replicate 3
  p-AKT phospho/total: 0.06
AKT; [3]
  AKT phosphorylation, result in words: blocked
ERK1/2; average
  p-ERK 1/2 phospho/total: 0.11
ERK1/2; replicate 2 (633-2 marked Outliers)
  p-ERK 1/2 phospho/total: 0.12
ERK1/2; replicate 3
  p-ERK 1/2 phospho/total: 0.09
ERK1/2; [3]
  ERK1/2 phosphorylation, result in words: blocked
p38; [3]
  p38 phosphorylation, result in words: blocked
p38; average
  p-p38 phospho/total: 0.66
p38; replicate 1
  p-p38 phospho/total: 0.67
p38; replicate 2
  p-p38 phospho/total: 0.65
[1]
  increase rate in preterm birth vs general population: 31.1%
[2]
  proliferation and activation of STAT3 in Ba/F3-gp130-mIL-6R: no hindrance on the proliferation and activation of STAT3
